Assay results as given in US20210380606A1, “5-AZAINDAZOLE DERIVATIVES AS ADENOSINE RECEPTOR ANTAGONISTS” (Merck Patent GmbH, priority 2018, published 2021).
Like-named read-outs stand apart in the source and are kept apart here.

How the values were obtained:
human A2A receptors = molecular target: T1, human A2A receptors (Homo sapiens, UniProt P29274); assay: Functional human A2A receptor activity, recombinant HEK293 cells, cAMP (HTRF); assay type: cell-based
T1 construct: expressed in transfected cells; host or cells: HEK293
T1 sequence (P29274 whole entry): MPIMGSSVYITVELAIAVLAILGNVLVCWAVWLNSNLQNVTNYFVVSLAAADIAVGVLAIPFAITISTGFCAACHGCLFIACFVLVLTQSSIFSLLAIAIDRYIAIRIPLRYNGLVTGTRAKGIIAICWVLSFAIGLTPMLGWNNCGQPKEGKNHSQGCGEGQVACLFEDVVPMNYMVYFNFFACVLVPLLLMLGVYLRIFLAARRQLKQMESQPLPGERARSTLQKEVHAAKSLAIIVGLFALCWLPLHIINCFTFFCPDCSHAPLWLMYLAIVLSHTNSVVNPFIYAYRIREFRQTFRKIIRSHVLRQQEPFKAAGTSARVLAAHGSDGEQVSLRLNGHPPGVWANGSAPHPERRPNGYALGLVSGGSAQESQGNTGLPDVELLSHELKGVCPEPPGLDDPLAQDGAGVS
Description: (§1) The functional activities of human A2A and A2B receptors were determined by quantification of cAMP, being the second messenger for adenosine receptors.
(§2) After a 15 min incubation, HTRF reagents (cAMP dynamic 2, Cis Bio) were added and the cellular cAMP levels were determined using the ENVISION (Perkin Elmer) plate reader.

human A2B receptors = molecular target: T2, human A2B receptors (Homo sapiens, UniProt P29275); assay: Functional human A2B receptor activity, recombinant HEK293 cells, cAMP (HTRF); assay type: cell-based
T2 construct: expressed in transfected cells; host or cells: HEK293
T2 sequence (P29275 1-332): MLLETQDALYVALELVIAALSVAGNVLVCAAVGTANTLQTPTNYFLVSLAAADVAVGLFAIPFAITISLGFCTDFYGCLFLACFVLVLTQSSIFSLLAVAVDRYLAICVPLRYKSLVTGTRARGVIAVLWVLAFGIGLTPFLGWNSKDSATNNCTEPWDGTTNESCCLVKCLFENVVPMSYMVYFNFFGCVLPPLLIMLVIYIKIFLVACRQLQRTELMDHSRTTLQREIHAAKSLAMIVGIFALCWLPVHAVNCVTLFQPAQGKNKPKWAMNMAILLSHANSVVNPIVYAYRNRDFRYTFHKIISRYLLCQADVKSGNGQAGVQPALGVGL
Description: as §1, §2

Row | Structure (SMILES) | IC50 (human A2A receptors; read-out: A2A (Category)) [nM] | IC50 (human A2B receptors; read-out: A2B (Category)) [nM] | IC50 (human A2A receptors; read-out: Functional A2A receptor activity, HEK293, cAMP, IC50) [nM] | IC50 (human A2B receptors; read-out: Functional A2B receptor activity HEK293, cAMP IC50) [nM]
1 | COc1ccc2ncc(-c3nn(CC(F)(F)F)c4cc(C(=O)N5CCCCCC5)ncc34)n2c1 [Compound 59, Azepan-1-yl-[3-(6-methoxy-imidazo[1,2-a]pyridin-3-yl)-1-(2,2,2-trifluoro-ethyl)-1H-pyrazolo[4,3-c]pyridin-6-yl]-methanone] | < 100 | < 1000 |  | 
2 | CCCn1nc(-c2coc3ccccc23)c2cnc(C(=O)N3[C@@H]4CC[C@H]3C[C@@H](O)C4)cc21 [Compound 222, (3-Benzofuran-3-yl-1-propyl-1H-pyrazolo[4,3-c]pyridin-6-yl)-(3-endo-hydroxy-8-aza-bicyclo[3.2.1]oct-8-yl)-methanone] | < 100 | < 1000 |  | 
3 | O=C(c1cc2c(cn1)c(-c1cnc3c(F)cc(F)cn13)nn2CC(F)(F)F)N1CCCC(F)(F)C1 [Compound 159, [3-(6,8-Difluoro-imidazo[1,2-a]pyridin-3-yl)-1-(2,2,2-trifluoro-ethyl)-1H-pyrazolo[4,3-c]pyridin-6-yl]-(3,3-difluoro-piperidin-1-yl)-methanone] | < 100 | < 1000 |  | 
4 | Cc1ccc2occ(-c3nn(CC(F)(F)F)c4cc(C(=O)N5CCCOCC5)ncc34)c2c1 [Compound 125, [3-(5-methylbenzofuran-3-yl)-1-(2,2,2-trifluoroethyl)pyrazolo[4,3-c]pyridin-6-yl]-(1,4-oxazepan-4-yl)methanone] | < 100 | < 1000 |  | 
5 | O=C(c1cc2c(cn1)c(-c1coc3ccccc13)nn2CC(F)(F)F)N1CCC(O)CC1 [Compound 207, [3-Benzofuran-3-yl-1-(2,2,2-trifluoro-ethyl)-1H-pyrazolo[4,3-c]pyridin-6-yl]-(4-hydroxy-piperidin-1-yl)-methanone] | < 100 | < 100 |  | 
6 | O=C(c1cc2c(cn1)c(-c1coc3ccccc13)nn2CC(F)(F)F)N1CC2CCC(C1)C2O (stereo not drawn) [Compound 218, [3-Benzofuran-3-yl-1-(2,2,2-trifluoro-ethyl)-1H-pyrazolo[4,3-c]pyridin-6-yl]-(8-endo-hydroxy-3-aza-bicyclo[3.2.1]oct-3-yl)-methanone] | < 100 | < 100 |  | 
7 | O=C(c1cc2c(cn1)c(-c1coc3ccccc13)nn2CCF)N1[C@@H]2CC[C@H]1C[C@@H](O)C2 [Compound 221, [3-Benzofuran-3-yl-1-(2-fluoro-ethyl)-1H-pyrazolo[4,3-c]pyridin-6-yl]-(3-endo-hydroxy-8-aza-bicyclo[3.2.1]oct-8-yl)-methanone] | < 100 | < 100 |  | 
8 | CS(=O)(=O)Cn1nc(-c2cnn3ccccc23)c2cnc(C(=O)N3CCCOCC3)cc21 [Compound 17, (1-Methanesulfonylmethyl-3-pyrazolo[1,5-a]pyridin-3-yl-1H-pyrazolo[4,3-c]pyridin-6-yl)-1,4-oxazepan-4-yl-methanone] | < 100 | < 100 |  | 
9 | CCN(C(=O)c1cc2c(cn1)c(-c1coc3ccccc13)nn2CC(F)(F)F)C(C)C [Compound 234, 3-(benzofuran-3-yl)-N-ethyl-N-isopropyl-1-(2,2,2-trifluoroethyl)-pyrazolo[4,3-c]pyridine-6-carboxamide] | < 100 | < 1000 |  | 
10 | C[C@@]1(O)C[C@H]2C[C@@H]1CN2C(=O)c1cc2c(cn1)c(-c1coc3ccccc13)nn2CS(C)(=O)=O (relative stereo) [Compound 31, (3-Benzofuran-3-yl-1-methanesulfonylmethyl-1H-pyrazolo[4,3-c]pyridin-6-yl)-(5-endo-hydroxy-5-exo-methyl-2-aza-bicyclo[2.2.1]hept-2-yl)-methanone] | < 100 | < 1000 |  | 
11 | O=C(c1ccc2c(-c3cnc4ccc(F)cn34)nn(CC(F)(F)F)c2c1)N1CCCCCC1 [analogue to No. 44, reference compound] |  |  | < 100 | < 1000
12 | O=C(c1cc2c(cn1)c(-c1cnc3c(F)cc(F)cn13)nn2CC(F)(F)F)N1CCCS(=O)(=O)CC1 [Compound 180, [3-(6,8-Difluoro-imidazo[1,2-a]pyridin-3-yl)-1-(2,2,2-trifluoro-ethyl)-1H-pyrazolo[4,3-c]pyridin-6-yl]-1,4-thiazepan-1,1-dioxide-4-yl-methanone] | < 100 | < 1000 |  | 
13 | O=C(c1cc2c(cn1)c(-c1cnc3c(F)cc(F)cn13)nn2CC(F)(F)F)N1CCC(O)CC1 [Compound 132, [3-(6,8-Difluoro-imidazo[1,2-a]pyridin-3-yl)-1-(2,2,2-trifluoro-ethyl)-1H-pyrazolo[4,3-c]pyridin-6-yl]-(4-hydroxy-piperidin-1-yl)-methanone] | < 100 | < 100 |  | 
14 | CC1(O)CCN(C(=O)c2cc3c(cn2)c(-c2cnn4ccccc24)nn3CC(F)(F)F)CC1 [Compound 117, (4-hydroxy-4-methyl-1-piperidyl)-[3-pyrazolo[1,5-a]pyridin-3-yl-1-(2,2,2-trifluoroethyl)pyrazolo[4,3-c]pyridin-6-yl]methanone] | < 100 | < 1000 |  | 
15 | O=C(c1cc2c(cn1)c(-c1cnc3c(F)cc(F)cn13)nn2CC(F)(F)F)N1[C@@H]2CC[C@H]1C[C@@H](O)C2 [Compound 168, [3-(6,8-Difluoro-imidazo[1,2-a]pyridin-3-yl)-1-(2,2,2-trifluoro-ethyl)-1H-pyrazolo[4,3-c]pyridin-6-yl]-(3-endo-hydroxy-8-aza-bicyclo[3.2.1]oct-8-yl)-methanone] | < 100 | < 100 |  | 
16 | O=C(c1cc2c(cn1)c(-c1cnc3c(F)cc(F)cn13)nn2CC(F)(F)F)N1CCOC2CC21 (stereo not drawn) [Compound 205, [3-(6,8-Difluoro-imidazo[1,2-a]pyridin-3-yl)-1-(2,2,2-trifluoro-ethyl)-1H-pyrazolo[4,3-c]pyridin-6-yl]-(2-oxa-5-aza-bicyclo[4.1.0]hept-5-yl)-methanone] | < 100 | < 1000 |  | 
17 | CCCn1nc(-c2coc3ccccc23)c2cnc(C(=O)N3CCCOCC3)cc21 [Compound 106, (3-Benzofuran-3-yl-1-propyl-1H-pyrazolo[4,3-c]pyridin-6-yl)-1,4-oxazepan-4-yl-methanone] | < 100 | < 1000 |  | 
18 | CC1(C)CC(O)CCN1C(=O)c1cc2c(cn1)c(-c1cnc3c(F)cc(F)cn13)nn2CC(F)(F)F (stereo not drawn) [Compound 142, [3-(6,8-Difluoro-imidazo[1,2-a]pyridin-3-yl)-1-(2,2,2-trifluoro-ethyl)-1H-pyrazolo[4,3-c]pyridin-6-yl]-(4-hydroxy-2,2-dimethyl-piperidin-1-yl)-methanone] | < 100 | < 1000 |  | 
19 | O=C(c1cc2c(cn1)c(-c1cnn3ccccc13)nn2CC(F)(F)F)N1[C@@H]2CC[C@H]1C[C@@H](O)C2 [Compound 113, (3-endo-hydroxy-8-azabicyclo[3.2.1]octan-8-yl)-[3-pyrazolo[1,5-a]pyridin-3-yl-1-(2,2,2-trifluoroethyl)pyrazolo[4,3-c]pyridin-6-yl]methanone] | < 100 | < 100 |  | 
20 | CS(=O)(=O)Cn1nc(-c2coc3ccccc23)c2cnc(C(=O)N3CCCC(O)CC3)cc21 (stereo not drawn) [Compound 40, (3-Benzofuran-3-yl-1-methanesulfonylmethyl-1H-pyrazolo[4,3-c]pyridin-6-yl)-(4-hydroxyazepan-1-yl)-methanone] | < 100 | < 100 |  | 
21 | CS(=O)(=O)Cn1nc(-c2cnn3ccncc23)c2cnc(C(=O)N3CCCOCC3)cc21 [Compound 250, (1-Methanesulfonylmethyl-3-pyrazolo[1,5-a]pyrazin-3-yl-1H-pyrazolo[4,3-c]pyridin-6-yl)-(1,4-oxazepan-4-yl)methanone] | < 100 | < 1000 |  | 
